Read-outs that look alike come from different tables or passages of the source.

One assay addresses T1, HIV-1 protease (Human immunodeficiency virus type 1 group M subtype B, UniProt P04585).
T1 construct: A simple, continuous fluorometric assay for HIV protease
Put plainly: HIV protease enzyme inhibition, fluorometric assay of Toth and Marshall. Type of assay: biochemical. Particulars: read-out: Ki. On the procedure:
(§1) The inhibitory potencies of acyclic and cyclic inhibitors were measured by the assay protocol of Toth and Marshall (Toth, M. V.; Marshall, G. R. A simple, continuous fluorometric assay for HIV protease. Int. J. Pep. Protien Res. 1990, 36, 544-55).

A further assay has as its system HIV-1. Put plainly: antiviral assay (IC50). Type of assay: cell-based. The following applies: read-out: IC50. On the procedure:
as §1

[1] abbreviates: Human immunodeficiency virus 1, Table 4.

As usually defined, the Ki is a measure of affinity in units of concentration, obtained from inhibition or displacement. As a reminder, the IC50 is the midpoint of a concentration-inhibition curve. As for `C=CCCCCOc1cc(OC)ccc1S(=O)(=O)N(C[C@@H](O)[C@H](Cc1ccccc1)NC(=O)O[C@H]1CO[C@H]2OCC[C@H]21)CC(C)(C)CC=C` [Compound 19a, (3R,3aS,6aR)-Hexahydrofuro[2,3-b]furan-3-yl (2S,3R)-4-(N-(2,2-dimethylpent-4-enyl)-2-(hex-5-enyloxy)-4-methoxyphenylsulfonamido)-3-hydroxy-1-phenylbutan-2-ylcarbamate], the Ki at HIV-1 protease (Table 4) was < 100 nM. In addition, the IC50 with HIV-1 (setting [1]) was > 1000 nM.

`COc1ccc2c(c1)OCCCCC=CCC(C)(C)CN(CC(O)C(Cc1ccccc1)NC(=O)OC1COC3OCCC13)S2(=O)=O` (stereo not shown) [Compound 20a]: at HIV-1 protease (Table 4), the inhibition constant (Ki) was < 100 nM. In addition, the IC50 with HIV-1 (setting [1]) was > 1000 nM.

Turning to `COc1ccc2c(c1)OCCCCC=CCC(C)CN(CC(O)C(Cc1ccccc1)NC(=O)OC1COC3OCCC13)S2(=O)=O` (stereo not shown) [Compound 20b], the Ki on HIV-1 protease (Table 4) was < 10 nM. The IC50 in the assay with HIV-1 (Table 4) was < 100 nM.

`COc1ccc2c(c1)OCCCCC=CCC(C)CN(CC(O)C(Cc1ccccc1)NC(=O)OC1COC3OCCC13)S2(=O)=O` (stereo not shown) [Compound 20c]: the Ki on HIV-1 protease (Table 4) was < 1 nM; at HIV-1 protease, 0.31 nM. The IC50 was 9 nM in the assay on HIV-1 (Human immunodeficiency virus 1) and < 10 nM in the assay with HIV-1 (Table 4).

As for `COc1ccc2c(c1)OCCCCC=CCC(C)(C)CN(CC(O)C(Cc1ccccc1)NC(=O)OC1COC3OCCC13)S2(=O)=O` (stereo not shown) [Compound 21a], the Ki at HIV-1 protease (Table 4) is < 10 nM. Further, the IC50 in the assay on HIV-1 (Table 4) is > 1000 nM.

For the molecule `COc1ccc2c(c1)OCCCCC=CCC(C)CN(CC(O)C(Cc1ccccc1)NC(=O)OC1COC3OCCC13)S2(=O)=O` (stereo not shown) [Compound 21b], the Ki on HIV-1 protease (Table 4) was < 10 nM; at HIV-1 protease it was 2.8 nM. The IC50 is < 10 nM in the assay on HIV-1 (Table 4) and 6.3 nM with HIV-1.
